Laboratory results as given in BindingDB's records for doi:10.1021/np980119+ (University of California, 1999).
pIC50: −log10 of the molar value.

experiment: Inhibition of phorbol ester-induced ornithine decarboxylase in human MCF7 cells after 6 hrs

Structure (SMILES)	pIC50
Oc1ccc(/C=C/c2cc(O)cc(O)c2)cc1 [5-[(E)-2-(4-hydroxyphenyl)ethenyl]benzene-1,3-diol]	4.72
COc1cc([C@@H]2CC(=O)c3c(O)c(CC=C(C)C)c4c(c3O2)C=CC(C)(C)O4)ccc1O [(2S)-6-(gamma,gamma-dimethylallyl)-5,4'-dihydroxy-3'-methoxy-6'',6''-dimethylpyran[2'',3'':7,8]flavanone]	5.96
COc1cc(/C=C/C(=O)c2ccc3c(c2O)C=CC(C)(C)O3)ccc1O [3-methoxy-4-hydroxylonchocarpin]	5.44
COc1cc(/C=C/c2cc(OC)c3c(c2)OC(C)(C)C=C3)ccc1O [3,5'-dimethoxy-4-hydroxy-6'',6''-dimethylpyran[2'',3'':3',4']stilbene]	5.13
O=c1c(-c2ccc(O)cc2)coc2cc(O)cc(O)c12 [Prunetol]	4.59
COc1cc(/C=C/c2ccc3c(c2)OC(C)(C)C=C3)cc(OC)c1OC [3,4,5-trimethoxy-6'',6''-dimethylpyran[2'',3'':3',4']stilbene]	5.41
COc1ccc([C@@H]2CC(=O)c3cc(CC=C(C)C)c4c(c3O2)C=CC(C)(C)O4)cc1OC [(2S)-6-(gamma,gamma-dimethylallyl)-3',4'-dimethoxy-6'',6''-dimethylpyran[2'',3'':7,8]flavanone]	5.64
